# Laboratory results from patent publication US20210338662A1, “ALPHA-2-ADRENOCEPTOR SUBTYPE C (ALPHA-2C) ANTAGONISTS FOR THE TREATMENT OF SLEEP APNEA” (Bayer Aktiengeseilschaft, priority 2018, published 2021).
# Test system: upper airway collapsibility in anaesthetized, spontaneously breathing pigs
# Assay: pig model of obstructive sleep apnea (OSA): upper airway collapsibility under negative pressure
# Format: in vivo, German Landrace pigs
# Settings: i.v. bolus 1.5 mg/kg then i.v. infusion 0.475 mg/kg/h for four hours
# Text: The therapeutic potential of the compounds of formula (I) according to the present invention in sleep apnea has been assessed preclinically in a pig model of obstructive sleep apnea (OSA).
# Using negative pressure, it is possible to induce collapse and thus obstruction of the upper respiratory tract in anaesthetized, spontaneously breathing pigs (Wirth K. J. et al., Sleep 36(5) (2013) pp. 699-708).
# German Landrace pigs are used for the model. The pigs are anaesthetized and tracheotomized. Two tracheal are inserted into the trachea, one into the rostral part and the other into the caudal part of the trachea. Using a connection piece, the rostral cannula is connected to a tube to the negative pressure device and to the distal tracheal cannula. The distal tracheal cannula is additionally connected to a tube with an open end to atmosphere via a connection piece that served for free tracheal breathing, circumventing the upper airway. By appropriate opening and clamping of those tubes breathing can be switched from nasal breathing to breathing through the caudal tracheal cannula, circumventing the upper airway, and the (isolated) upper airway can be connected to the negative pressure device, causing airflow in the inspiratory direction.
# At certain points in time, the collapsibility of the upper respiratory tract is tested by having the pig breathe via the caudal cannula and applying negative pressures of −50, −100 and −150 cm water head (cm H2O) to the upper respiratory tract. This causes the upper respiratory tract to collapse, which manifests itself in an interruption of the airflow and a pressure drop in the tube system. This test is conducted prior to the administration of the test substance and at certain intervals after the administration of the test substance. An appropriately effective test substance can prevent this collapse of the respiratory tract in the inspiratory phase.
# FIG. 1: Effect of i.v. bolus injection of 1.5 mg/kg followed by an i.v. infusion of 0.475 mg/kg/h for four hours of the α2-Adrenoceptor subtype C (alpha-2C) antagonists of formula (I) ((S)-1-((2,3-dihydrobenzo[b][1,4]dioxin-2-yl)methyl)-4-(3-(methoxymethyl)pyridin-2-yl)piperazine given at time point 0 min on upper airway collapsibility at different levels of negative pressure. Percentages of pigs with no collapse are given. Mean values.
# [1] = all negative pressures of −50, −100 and −150 cm
# [2] = time 0 min (time point of administration), mean values
smiles,measurement,setting,value
"COCc1cccnc1N1CCN(C[C@H]2COc3ccccc3O2)CC1 [(S)-1-((2,3-dihydrobenzo[b][1,4]dioxin-2-yl)methyl)-4-(3-(methoxymethyl)pyridin-2-yl)piperazine]",duration of inhibition of upper airway collapsibility,[1],up to five
same,effect on upper airway collapsibility,[1],inhibited upper airway collapsibility
same,Percent pigs without collaps −50 cm H2O,[2],0%
same,Percent pigs without collaps −50 cm H2O,time 10 min,100%
same,Percent pigs without collaps −50 cm H2O,time 30 min,100%
same,Percent pigs without collaps −50 cm H2O,time 60 min,100%
same,Percent pigs without collaps −50 cm H2O,time 120 min,100%
same,Percent pigs without collaps −50 cm H2O,time 180 min,100%
same,Percent pigs without collaps −50 cm H2O,time 240 min,100%
same,Percent pigs without collaps −50 cm H2O,time 300 min,100%
same,Percent pigs without collaps −50 cm H2O,time 330 min,100%
same,Percent pigs without collaps −100 cm H2O,[2],0%
same,Percent pigs without collaps −100 cm H2O,time 10 min,100%
same,Percent pigs without collaps −100 cm H2O,time 30 min,100%
same,Percent pigs without collaps −100 cm H2O,time 60 min,100%
same,Percent pigs without collaps −100 cm H2O,time 120 min,100%
same,Percent pigs without collaps −100 cm H2O,time 180 min,100%
same,Percent pigs without collaps −100 cm H2O,time 240 min,100%
same,Percent pigs without collaps −100 cm H2O,time 300 min,100%
same,Percent pigs without collaps −100 cm H2O,time 330 min,100%
same,Percent pigs without collaps −150 cm H2O,[2],0%
same,Percent pigs without collaps −150 cm H2O,time 10 min,100%
same,Percent pigs without collaps −150 cm H2O,time 30 min,100%
same,Percent pigs without collaps −150 cm H2O,time 60 min,100%
same,Percent pigs without collaps −150 cm H2O,time 120 min,100%
same,Percent pigs without collaps −150 cm H2O,time 180 min,100%
same,Percent pigs without collaps −150 cm H2O,time 240 min,100%
same,Percent pigs without collaps −150 cm H2O,time 300 min,100%
same,Percent pigs without collaps −150 cm H2O,time 330 min,100%
